Measured values taken from ChEMBL document CHEMBL4229545, “Oximes short-acting CB1 receptor agonists” (Bioorg Med Chem, 2018).
The source made the active and inactive calls. The rule behind the calls is not given here.

Legend:
Cannabinoid receptor 2 [1] = target: Cannabinoid receptor 2 (Mus musculus, UniProt P47936); assay: Displacement of [3H]CP-55,940 from recombinant mouse Cb2 receptor expressed in HEK293 cells; format: cell-based
Cannabinoid receptor 2 [2] = target: T1, Cannabinoid receptor 2 (Homo sapiens, UniProt P34972); assay: Displacement of [3H]CP-55,940 from recombinant human Cb2 receptor expressed in HEK293 cells; format: cell-based
T1 sequence (P34972 whole entry): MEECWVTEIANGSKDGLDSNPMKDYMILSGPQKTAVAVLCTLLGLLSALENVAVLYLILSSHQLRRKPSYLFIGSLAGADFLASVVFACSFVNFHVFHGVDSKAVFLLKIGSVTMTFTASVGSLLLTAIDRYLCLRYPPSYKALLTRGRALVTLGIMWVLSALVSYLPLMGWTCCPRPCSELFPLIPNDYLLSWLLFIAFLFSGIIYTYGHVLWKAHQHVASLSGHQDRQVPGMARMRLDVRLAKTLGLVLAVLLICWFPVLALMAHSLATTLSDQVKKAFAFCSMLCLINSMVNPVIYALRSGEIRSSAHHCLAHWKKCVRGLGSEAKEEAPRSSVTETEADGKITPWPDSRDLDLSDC

Cannabinoid receptor 1 [3] = target: T2, Cannabinoid receptor 1 (Rattus norvegicus, UniProt P20272); assay: Displacement of [3H]CP-55,940 from rat brain Cb1 receptor
T2 sequence (P20272 whole entry): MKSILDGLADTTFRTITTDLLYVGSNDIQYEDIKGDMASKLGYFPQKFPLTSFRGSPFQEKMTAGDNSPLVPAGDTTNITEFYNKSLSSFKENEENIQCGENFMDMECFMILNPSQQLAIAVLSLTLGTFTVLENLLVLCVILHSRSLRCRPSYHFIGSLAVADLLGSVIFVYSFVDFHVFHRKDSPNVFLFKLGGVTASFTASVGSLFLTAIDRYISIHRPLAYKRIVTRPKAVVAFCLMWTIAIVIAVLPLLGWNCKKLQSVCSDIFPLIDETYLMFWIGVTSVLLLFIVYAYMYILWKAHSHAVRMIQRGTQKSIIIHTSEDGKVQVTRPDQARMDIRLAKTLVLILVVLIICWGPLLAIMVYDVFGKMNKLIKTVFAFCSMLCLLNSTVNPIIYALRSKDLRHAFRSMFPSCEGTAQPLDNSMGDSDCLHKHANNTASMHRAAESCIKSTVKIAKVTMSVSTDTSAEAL

Cannabinoid receptor 2 [4] = target: T1, Cannabinoid receptor 2; assay: Agonist activity at recombinant human Cb2 receptor expressed in HEK293 cells assessed as inhibition of forskolin-stimulated cAMP levels relative to CP-55940; format: functional, cell-based
Cannabinoid receptor 1 [5] = target: T2, Cannabinoid receptor 1; assay: Agonist activity at recombinant rat Cb1 receptor expressed in HEK293 cells assessed as inhibition of forskolin-stimulated cAMP levels; format: functional, cell-based
Cannabinoid receptor 2 [6] = target: T1, Cannabinoid receptor 2; assay: Agonist activity at recombinant human Cb2 receptor expressed in HEK293 cells assessed as inhibition of forskolin-stimulated cAMP levels; format: functional, cell-based; settings: read-out: EC50
[7] = target: Cannabinoid receptor 1 (Rattus norvegicus) (UniProt P20272); assay: Agonist activity at recombinant rat Cb1 receptor expressed in HEK293 cells assessed as inhibition of forskolin-stimulated cAMP levels relative to control; format: functional, cell-based
Chain of Cannabinoid receptor 1 (Rattus norvegicus) (P20272 whole entry): as above

[8] = Tmax in CD1 mouse at 10 mg/kg, po; format: ADME, organism-based; settings: in vivo
[9] = Ratio of AUC in plasma to kidney of CD1 mouse at 10 mg/kg, po; format: ADME, organism-based; settings: in vivo
[10] = Ratio of AUC in plasma to liver of CD1 mouse at 2 mg/kg, iv; format: ADME, organism-based; settings: in vivo
[11] = Ratio of AUC in plasma to fat of CD1 mouse at 10 mg/kg, po; format: ADME, organism-based, Adipose tissue/Plasma; settings: in vivo
[12] = AUC in CD1 mouse kidney at 2 mg/kg, iv; format: ADME, organism-based
[13] = AUC in CD1 mouse liver at 10 mg/kg, po; format: ADME, organism-based
[14] = Ratio of AUC in plasma to urine of CD1 mouse at 10 mg/kg, po; format: ADME, organism-based; settings: in vivo
[15] = Half life in mouse liver microsomes; format: ADME, microsome
[16] = Half life in CD1 mouse at 10 mg/kg, po; format: ADME, organism-based; settings: in vivo
[17] = AUC in CD1 mouse plasma at 10 mg/kg, po; format: ADME, organism-based
[18] = AUC in CD1 mouse brain at 2 mg/kg, iv; format: ADME, organism-based
[19] = Ratio of AUC in plasma to brain of CD1 mouse at 2 mg/kg, iv; format: ADME, organism-based; settings: in vivo
[20] = AUC in CD1 mouse liver at 2 mg/kg, iv; format: ADME, organism-based
Mus musculus [21] = assay: Volume of distribution in CD1 mouse at 10 mg/kg, po; format: ADME, organism-based; settings: in vivo
[22] = Half life in human liver microsomes; format: ADME, microsome
[23] = Half life in rat liver microsomes; format: ADME, microsome
[24] = Ratio of AUC in plasma to spleen of CD1 mouse at 10 mg/kg, po; format: ADME, organism-based; settings: in vivo
[25] = AUC in CD1 mouse at 2 mg/kg, iv; format: ADME, organism-based; settings: in vivo
[26] = AUC in CD1 mouse brain at 10 mg/kg, po; format: ADME, organism-based
[27] = AUC in CD1 mouse spleen at 2 mg/kg, iv; format: ADME, organism-based
Rattus norvegicus [28] = assay: Induction of hypothermia in Sprague-Dawley rat assessed as decrease in body temperature at 1 mg/kg, ip measured after 3 to 6 hrs; format: functional, organism-based
Mus musculus [29] = assay: Analgesic activity in CD1 mouse model of thermal-induced nociception assessed as tail withdrawal latency at 1 mg/kg, ip measured after 180 to 360 mins by tail flick test; format: functional, organism-based
[30] = AUC in CD1 mouse fat at 2 mg/kg, iv; format: ADME, organism-based, Adipose tissue
[31] = Half life in CD1 mouse at 2 mg/kg, iv; format: ADME, organism-based; settings: in vivo
[32] = Half life in human plasma; format: ADME, cell-free
[33] = AUC in CD1 mouse at 10 mg/kg, po; format: ADME, organism-based; settings: in vivo
[34] = target: Cannabinoid receptor 1 (Rattus norvegicus) (UniProt P20272); assay: Displacement of [3H]CP-55,940 from rat brain Cb1 receptor expressed in HEK293 cells at 10 times Ki incubated for 1 hr followed by 5 times membrane washout; format: cell-based
[35] = Half life in simulated gastric fluid; format: ADME
Rattus norvegicus [36] = assay: Induction of hypothermia in Sprague-Dawley rat assessed as decrease in body temperature at 1 mg/kg, ip measured after 24 hrs; format: functional, organism-based
[37] = Ratio of AUC in plasma to kidney of CD1 mouse at 2 mg/kg, iv; format: ADME, organism-based; settings: in vivo
[38] = Ratio of AUC in plasma to liver of CD1 mouse at 10 mg/kg, po; format: ADME, organism-based; settings: in vivo
Rattus norvegicus [39] = species: Rattus norvegicus; settings: Sprague-Dawley
Description: Induction of hypothermia in ip dosed Sprague-Dawley rat assessed as decrease in body temperature measured up to 180 mins

[40] = AUC in CD1 mouse plasma at 2 mg/kg, iv; format: ADME, organism-based
Mus musculus [41] = assay: Analgesic activity in ip dosed CD1 mouse model of thermal-induced nociception assessed as tail withdrawal latency measured after 20 mins by tail flick test; format: functional
[42] = AUC in CD1 mouse spleen at 10 mg/kg, po; format: ADME, organism-based
[43] = Half life in rat plasma; format: ADME, cell-free
[44] = Ratio of AUC in plasma to fat of CD1 mouse at 2 mg/kg, iv; format: ADME, organism-based, Adipose tissue/Plasma; settings: in vivo
[45] = target: Cannabinoid receptor 1 (Rattus norvegicus) (UniProt P20272); assay: Displacement of [3H]CP-55,940 from rat brain Cb1 receptor expressed in HEK293 cells at 10 times Ki measured after 1 hr relative to control; format: cell-based
[46] = Ratio of AUC in plasma to spleen of CD1 mouse at 2 mg/kg, iv; format: ADME, organism-based; settings: in vivo
[47] = AUC in CD1 mouse urine at 10 mg/kg, po; format: ADME, organism-based
Rattus norvegicus [48] = assay: Induction of hypothermia in Sprague-Dawley rat assessed as decrease in body temperature at 1 to 10 mg/kg, ip measured after 180 to 360 mins; format: functional, organism-based
[49] = Half life in mouse plasma; format: ADME, cell-free
[50] = Volume of distribution in CD1 mouse at 2 mg/kg, iv; format: ADME, organism-based; settings: in vivo
[51] = AUC in CD1 mouse kidney at 10 mg/kg, po; format: ADME, organism-based
[52] = AUC in CD1 mouse fat at 10 mg/kg, po; format: ADME, organism-based, Adipose tissue
[53] = Ratio of AUC in plasma to brain of CD1 mouse at 10 mg/kg, po; format: ADME, organism-based; settings: in vivo

Chain of Cannabinoid receptor 2 (Mus musculus, UniProt P47936) (P47936 whole entry): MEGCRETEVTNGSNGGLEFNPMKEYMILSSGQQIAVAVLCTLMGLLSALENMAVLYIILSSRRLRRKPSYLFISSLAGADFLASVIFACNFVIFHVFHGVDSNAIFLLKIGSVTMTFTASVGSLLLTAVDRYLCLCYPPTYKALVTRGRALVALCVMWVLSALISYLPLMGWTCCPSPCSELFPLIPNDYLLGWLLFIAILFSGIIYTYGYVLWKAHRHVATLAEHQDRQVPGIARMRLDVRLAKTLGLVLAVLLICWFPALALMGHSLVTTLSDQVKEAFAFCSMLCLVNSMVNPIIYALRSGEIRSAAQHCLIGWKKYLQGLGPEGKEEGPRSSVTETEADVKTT

CCCCCCC(C)(C)c1cc(O)c2c(c1)OC(C)(C)[C@H]1CC=C(C)C[C@H]21
Ki (Cannabinoid receptor 2 [1]): 3.2 nM
Ki (Cannabinoid receptor 2 [2]): 9 nM
Ki (Cannabinoid receptor 1 [3]): 0.77 nM

CC1=CC[C@H]2[C@H](C1)c1c(O)cc(/C(C)=N/OCCCc3ccccc3)cc1OC2(C)C
Emax (Cannabinoid receptor 2 [4]): 35%
EC50 (Cannabinoid receptor 1 [5]; read-out: EC50): 2.6 nM
Ki (Cannabinoid receptor 2 [1]): 3.8 nM
EC50 (Cannabinoid receptor 2 [6]): 1.65 nM
Ki (Cannabinoid receptor 2 [2]): 2.7 nM
Emax [7]: 27%
Ki (Cannabinoid receptor 1 [3]): 3 nM

CC1=CC[C@H]2[C@H](C1)c1c(O)cc(/C(C)=N/OCCN3CCCC3)cc1OC2(C)C
Ki (Cannabinoid receptor 2 [1]): 6.7 nM
Ki (Cannabinoid receptor 2 [2]): 8.4 nM
Ki (Cannabinoid receptor 1 [3]): 6.6 nM

CC1=CC[C@H]2[C@H](C1)c1c(O)cc(/C(C)=N/OCCCn3ccnc3)cc1OC2(C)C
Ki (Cannabinoid receptor 2 [1]): 1.5 nM
Ki (Cannabinoid receptor 2 [2]): 3.7 nM
Ki (Cannabinoid receptor 1 [3]): 1.2 nM

CCCC(C)O/N=C(/C)c1cc(O)c2c(c1)OC(C)(C)[C@H]1CC=C(C)C[C@H]21 (mixture of isomers)
Emax (Cannabinoid receptor 2 [4]): 260%
EC50 (Cannabinoid receptor 1 [5]; hek293): Not Active
Ki (Cannabinoid receptor 2 [1]): 1.9 nM
EC50 (Cannabinoid receptor 2 [6]): 11.5 nM
Ki (Cannabinoid receptor 2 [2]): 6.1 nM
Ki (Cannabinoid receptor 1 [3]): 0.5 nM

CC1=CC[C@H]2[C@H](C1)c1c(O)cc(/C(C)=N/OCCCC#N)cc1OC2(C)C
Tmax [8]: 60 min
Ratio AUC [9]: 2.06
Ratio AUC [10]: 0.64
Ratio AUC [11]: 5.72
AUC [12]: 890 ng·h/mL
AUC [13]: 308 ng·h/mL
Ratio AUC [14]: 0.09
half-life [15]: 13 min
half-life [16]: 35.2 min
AUC [17]: 124 ng·h/mL
AUC [18]: 443 ng·h/mL
Ratio AUC [19]: 0.49
AUC [20]: 580 ng·h/mL
Vd (Mus musculus [21]): 68.042 L/kg
half-life [22]: 9 min
Emax (Cannabinoid receptor 2 [4]): 47%
half-life [23]: 12 min
EC50 (Cannabinoid receptor 1 [5]; read-out: EC50): 4.4 nM
Ratio AUC [24]: 0.86
AUC [25]: 1060 ng·h/mL
Ki (Cannabinoid receptor 2 [1]): 2.6 nM
AUC [26]: 154 ng·h/mL
AUC [27]: 957 ng·h/mL
Activity (Rattus norvegicus [28]): Active
Activity (Mus musculus [29]): Active
AUC [30]: 5390 ng·h/mL
EC50 (Cannabinoid receptor 2 [6]): 12 nM
half-life [31]: 47.3 min
half-life [32]: > 60 min
AUC [33]: 1240 ng·h/mL
inhibition [34]: 23%
half-life [35]: > 60 min
Activity (Rattus norvegicus [36]): inactive
Ratio AUC [37]: 0.99
Ratio AUC [38]: 2.48
deltaT (Rattus norvegicus [39]): 4.5 to 7.7 °C
AUC [40]: 900 ng·h/mL
Activity (Mus musculus [41]): Dose-dependent effect
ED50 (Mus musculus [41]): 1.42 mg/kg
AUC [42]: 107 ng·h/mL
half-life [43]: > 60 min
Ratio AUC [44]: 5.98
inhibition [45]: 44%
Ratio AUC [46]: 1.06
AUC [47]: 11.3 ng·h/mL
Activity (Rattus norvegicus [48]): inactive
half-life [49]: > 60 min
Vd [50]: 2.16 L/kg
Ki (Cannabinoid receptor 2 [2]): 1.3 nM
AUC [51]: 257 ng·h/mL
Emax [7]: 51%
AUC [52]: 710 ng·h/mL
Ratio AUC [53]: 1.24
Ki (Cannabinoid receptor 1 [3]): 0.9 nM

CC1=CC[C@H]2[C@H](C1)c1c(O)cc(/C(C)=N/OCCCC(F)(F)F)cc1OC2(C)C
Emax (Cannabinoid receptor 2 [4]): 43%
EC50 (Cannabinoid receptor 1 [5]; read-out: EC50): 0.4 nM
Ki (Cannabinoid receptor 2 [1]): 0.5 nM
EC50 (Cannabinoid receptor 2 [6]): 1 nM
Ki (Cannabinoid receptor 2 [2]): 3 nM
Emax [7]: 69%
Ki (Cannabinoid receptor 1 [3]): 0.3 nM

CC1=CC[C@H]2[C@H](C1)c1c(O)cc(/C(C)=N\OCCCc3ccccc3)cc1OC2(C)C
Emax (Cannabinoid receptor 2 [4]): 98%
EC50 (Cannabinoid receptor 1 [5]; hek293): Not Active
Ki (Cannabinoid receptor 2 [1]): 2.8 nM
EC50 (Cannabinoid receptor 2 [6]): 1.7 nM
Ki (Cannabinoid receptor 2 [2]): 2.9 nM
Ki (Cannabinoid receptor 1 [3]): 5 nM

CC1=CC[C@H]2[C@H](C1)c1c(O)cc(/C(C)=N/OCCN3CCCCC3)cc1OC2(C)C
Emax (Cannabinoid receptor 2 [4]): 147%
EC50 (Cannabinoid receptor 1 [5]; read-out: EC50): 12.7 nM
Ki (Cannabinoid receptor 2 [1]): 4.1 nM
EC50 (Cannabinoid receptor 2 [6]): 65.7 nM
Ki (Cannabinoid receptor 2 [2]): 2.5 nM
Emax [7]: 31%
Ki (Cannabinoid receptor 1 [3]): 5.6 nM
